The structures appear in SMILES notation. Where “and” joins values, the source holds several entries; their conditions need not be identical. Identical values can stand only once. Records with an inconclusive call do not appear. Calls of active or inactive are those of the source.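 Rule for the calls: active = compounds lowering the luciferase signal with a fitted half-maximal dose at most twice their top valid dose (cut at about 30 µM in these data); inconclusive = flat fits with moderate signal loss, or poor fits; inactive = the rest.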

What is called AC50 is the concentration at which the activity in the assay is half-maximal.

The assay has as its system Clone20 osteoblast Shn3 3'UTR firefly luciferase, 24 h. The experiment in a line: Schnurri-3 3'UTR-luciferase signal suppressors – cell-based, Clone20 osteoblasts, luminescence, dry powder, set 2, dose response (AID 743417).
As to `COc1ccccc1-c1cc(C(F)(F)F)nc(S(=O)(=O)CCCC(=O)N2CCOCC2)n1`, the AC50 was 3.02 µM.
The figure for `COc1ccc([C@@]23Oc4cc(OC)cc(OC)c4[C@]2(O)[C@H](O)[C@H](C(=O)N(C)C)[C@H]3c2ccccc2)cc1` is < 0.26 µM; for `COC(=O)c1ccccc1NC(=S)N(Cc1ccc2c(c1)OCO2)Cc1cc2cc(OC)ccc2[nH]c1=O` it is 10.4 µM; for `OCCCNc1nccc(-c2cc(Nc3cccc(Cl)c3)ncn2)n1` it is 2.61 µM.
Consider `CC[C@@H](C(=O)[C@@H](C)[C@@H](O)[C@H](C)CCc1ccc(C)c(O)c1C(=O)O)[C@H]1O[C@](CC)([C@H]2CC[C@](O)(CC)[C@H](C)O2)C[C@@H]1C`, for which the AC50 is 7.93 µM.
As for `CCCCC1(Cc2ccc([N+](=O)[O-])cc2)C(=O)N(c2ccccc2)N(c2ccccc2)C1=O`, the AC50 is 10.2 µM.
`CN(CC(=O)Nc1ccccc1Cl)C(=O)c1cccc(S(=O)(=O)N2CCN(Cc3ccccc3)CC2)c1`: the AC50 is 3.47 µM.
With `CCC(C)C(NC(=O)CCCNC(=O)CCC(=O)OC1O[C@H]2OC3(C)CC[C@H]4[C@H](C)CCC(C1C)C24OO3)C(=O)O` (some centres not stated) the figure was 1.02 µM; with `COc1cnc(-c2ccccn2)nc1N(C)c1ccccc1`, 1.83 µM.
Take `S=C(Nc1ccccc1)Nc1ccc(OCc2ccc(Cl)cc2Cl)cc1`: the AC50 was 0.405 µM.
With `C=CCn1nc([N+](=O)[O-])nc1Sc1cccc2cccnc12` the figure was 10.7 µM; with `COCCN(CC(=O)NC1CCCCC1)C(=O)/C=C/C(=O)c1ccc(OC)cc1O`, 2.58 µM; with `COc1ccc(CCNc2ncnc3c2oc2ccccc23)cc1OC`, 0.524 µM.
With `CCCCC(=O)NC(c1cccc([N+](=O)[O-])c1)c1ccc2cccnc2c1O` (configuration not stated) the figure was 1 µM; with `CC(=O)Nc1nc(C)c(-c2csc(Nc3cccc(C(C)=O)c3)n2)s1`, 1.67 µM.
The figure for `C[C@H]1CCC/C=C/[C@@H]2C[C@H](O)C[C@H]2[C@H](O)/C=C/C(=O)O1` is 3.15 µM and 2.2 µM.
On to `O=C(c1ccc2c(=O)n(-c3ccccc3)c(=S)[nH]c2c1)N1CCCCC1`, for which the AC50 is 1.44 µM.
As for `O=S(=O)(c1ccc(Cl)cc1)N1CCN(Cc2ccc(O)c3ncccc23)CC1`, the AC50 is 3.01 µM.
The figure for `O=C(NNc1ccnc2cc(Cl)ccc12)C1CCCCC1` is < 0.26 µM.
`Cc1ccccc1C(=O)N1CCN(c2ccc(NC(=O)c3ccc4c(c3)OCCO4)cc2)CC1`: the AC50 was 2.17 µM.
For the compound `O=C1ON=C(c2ccccc2)/C1=C/c1ccc(-c2ccccc2[N+](=O)[O-])o1`, the AC50 is 7.21 µM.
With `CC(C)=CCC/C(C)=C/CNC(=O)C[C@H]1C[C@H](C(=O)N(C(C)C)C(C)C)[C@@]2(C)c3[nH]c4cc(CCC(=O)N(C)C)ccc4c3CCN2C1=O` the figure was 2.05 µM; with `Cc1ccccc1CN1CC2=C(CCN(Cc3ccccc3)C2=O)N2CCN=C12`, 2.41 µM.
Turning to `COC(=O)/C=C/S(=O)(=O)c1ccc(NC(C)=O)cc1`, the AC50 is 7.3 µM.
The figure for `CC(=O)OC[C@]12CC[C@H]3[C@@](C)(CC[C@H]4C(C)(C)CCC[C@]34C)[C@@H]1CC(C1=CC(=O)OC1O)O2` (some centres not stated) is 0.634 µM.
As to `Cc1cc(C)c(C)c(S(=O)(=O)N2CCN(c3ncnc4ccccc34)CC2)c1C`, the AC50 is 1.46 µM.
With `N#CC(c1ccc(Cl)cc1)c1ccc2c(C(F)(F)F)cc(C(F)(F)F)nc2n1` (configuration not stated), the AC50 is 0.487 µM.
Turning to `CC(C)NS(=O)(=O)c1ccc(CCC(=O)Nc2cc(Cl)ccc2Oc2ccccc2)cc1`, the AC50 was 7.65 µM.
Turning to `O=C(Nc1nc(-c2ccccn2)cs1)c1ccc(F)c(S(=O)(=O)N2CCOCC2)c1`, the AC50 was 1.32 µM.
With `CCOc1ccc(N(C)S(=O)(=O)c2cc(-c3cc(C)no3)ccc2C(C)C)cc1` the figure was 4.13 µM; with `CCCNc1nc2c(c(=O)n(C)c(=O)n2C)n1Cc1cccc(C)c1`, 1.91 µM; with `COc1ccc(CNCCc2c(C)[nH]c3ccc(OC(F)(F)F)cc23)c(OC)c1`, 0.963 µM.
With `CCCCNS(=O)(=O)c1ccc(S(=O)(=O)NCc2ccncc2)cc1` the figure was 2.4 µM; with `CCC(C)c1ccc(S(=O)(=O)N2CCN(C(=O)c3ccc(Cl)c(S(=O)(=O)N4CCOCC4)c3)CC2)cc1` (configuration not stated), 5.32 µM; with `CCCCC(=O)NC(c1ccccc1Cl)c1ccc2cccnc2c1O` (configuration not stated), 1.12 µM.
With `C#CCN(C[C@@H]1[C@@H](OC(=O)NCC2CCCCC2)[C@@H](OC(=O)NCC2CCCCC2)Cn2c(=O)ccc(=O)n21)S(=O)(=O)c1ccc(C)cc1` the figure was 2.49 µM; with `Cc1cc(C(=O)CSc2nc(N)cc(=O)[nH]2)c(C)n1-c1cccc(F)c1`, 1.66 µM.
As for `CCC(C)(O)C(=O)OC1C(=O)OC2CC3C(C)=CC(=O)C(O)C3(C)C3C4(O)OCC23C1C(C)C4O` (configuration not stated), the AC50 was 0.866 µM.
For the compound `Cc1ccc(OCCN2CCN(c3ncnc4sc(C)c(C)c34)CC2)cc1`, the AC50 was 0.754 µM.
In the case of `O=C(Nc1cc(F)ccc1F)N1CCN(c2ccnc3cc(Cl)ccc23)CC1`, the AC50 is 22.8 µM.
`O=C(CSc1c2c(nc3ccc(Cl)cc13)CCCC2)NCc1ccco1`: the AC50 is 5.71 µM.
With `O=c1[nH]c(Nc2nc3ccccc3o2)nc2c1CCCC2` the figure was 7.71 µM.
For the compound `CCC12CN(S(=O)(=O)c3ccc(C)cc3)CC(CC)(CN(S(=O)(=O)c3ccc(C)cc3)C1)C2=O`, the AC50 is 3.48 µM.
`CCC1CCCCN1C(=O)c1cc(COc2ccc3ncccc3c2)on1` (configuration not stated): the half-maximal activity concentration (AC50) is 0.46 µM.
With `CC(C)(C)n1nnnc1C(c1ccc(C(F)(F)F)cc1)N(Cc1ccccc1)Cc1ccco1` (configuration not stated) the figure was 4.74 µM; with `CCCNC(=O)c1nnsc1S(=O)(=O)c1ccc(Cl)cc1`, 3.63 µM; with `Cn1cnc([N+](=O)[O-])c1S(=O)(=O)Oc1ccccc1`, 3.83 µM.
Take `COc1ccc(CNc2ncnc3ccccc23)cc1`: the AC50 was 0.674 µM.
On to `CCCCn1c(CN2CCN(c3ccccc3)CC2)nc2c1c(=O)n(C)c(=O)n2C`, for which the AC50 is 2.05 µM.
With `Cc1onc(-c2ccccc2Cl)c1C(=O)N(C)C1CCCCC1` the figure was 2.74 µM; with `O=c1c2ccccc2cnn1-c1nc2ccccc2[nH]1`, 1.33 µM; with `O=C(c1ccc(Cn2c(=S)[nH]c3ccccc3c2=O)cc1)N1CCN(c2ccccn2)CC1`, 6.34 µM.
`Cn1cc(CN(CCO)Cc2cccs2)c(-c2cccc(Cl)c2)n1`: the AC50 was 3.25 µM.
With `COCc1c(C(=O)Nc2cccc(S(=O)(=O)N3CCCCC3)c2)oc2ccccc12` the figure was 9.63 µM.
`COc1ccc(CCNc2ncnc3sccc23)cc1OC`: the AC50 was < 0.26 µM.
Turning to `Cc1cc(C(=O)COC(=O)c2ccccc2O)c(C)n1Cc1cccs1`, the AC50 was 8.99 µM.
For the compound `O=C(OCCN1C(=O)c2cccc3c(N4CCOCC4)ccc(c23)C1=O)c1ccccc1Cl`, the AC50 was 3.06 µM.
With `CCCCNc1nc2c(c(=O)n(C)c(=O)n2C)n1Cc1cccc(OC)c1` the figure was 0.284 µM; with `O=C(Nc1ccc([N+](=O)[O-])cc1)C(=O)Nc1cccc(C(=O)O)c1`, 4.21 µM.
The figure for `COc1ccc(CNC(=O)c2cccc3c(-c4cccnc4)coc23)cc1OC` is 0.9 µM.
With `Nc1nc(N)c(-c2cccc(C(F)(F)F)c2)c(Cc2cccc(C(F)(F)F)c2)n1` the figure was 3.6 µM.
On to `Cc1nn(C)c(C(=O)NCc2ccc(Cl)cc2)c1Cl`, for which the AC50 is 1.74 µM.
For the compound `CCCOC(=O)c1[nH]c2c(c1C)C(=O)CC(c1cc(OC)c(OC)c(OC)c1)C2` (configuration not stated), the AC50 is 1.92 µM.
With `CCc1ccc(OCCNc2cc(N3CCNC(C)C3)ccc2[N+](=O)[O-])cc1` (configuration not stated) the figure was 15.6 µM.
With `Cc1ccc(S(=O)(=O)Nc2ccc(O)c3ncccc23)cc1` the figure was 1.55 µM; with `C=C1C(=O)O[C@H]2[C@H]1[C@H](OC(=O)CC(=O)O[C@@H]1C[C@@H](C)[C@@H]3C=CC(=O)[C@@]3(C)[C@H]3OC(=O)C(=C)[C@H]13)C[C@@H](C)[C@H]1C=CC(=O)[C@]12C`, 1.54 µM; with `Cc1cc(C)c2sc(NNC(=O)c3ccc(S(=O)(=O)N4CCc5ccccc5C4)cc3)nc2c1`, 1.8 µM.
With `CC1(C)CC(=O)c2c(nc(SCC(=O)Nc3nsc(-c4ccccc4)n3)c(C#N)c2-c2ccccc2)C1` the figure was > 70 µM (inactive).
With `Cc1cccc(C(=O)Nc2ccc(C(=O)/C=C/c3ccncc3)cc2)c1`, the AC50 is 3.41 µM.
The figure for `Cc1ccccc1C(=O)N1CCN(c2ccc(NC(=O)CSc3ccc(Cl)cc3)cc2)CC1` is 4.23 µM; for `CC1CCN(c2ccccc2NC(=S)NC(=O)c2ccc(-c3cccc([N+](=O)[O-])c3)o2)CC1` it is 3.07 µM.
With `Oc1ccc(CCNc2ncnc3ccc(Cl)cc23)cc1` the figure was 0.551 µM.
The figure for `CC(C)C[C@@H](CO)N(Cc1ccccc1)S(=O)(=O)N(Cc1ccccc1)[C@@H](CO)CC(C)C` is 11.4 µM; for `COc1ccc(-c2cc(C(F)(F)F)nc(S(=O)(=O)CCCC(=O)Nc3cccnc3Cl)n2)cc1OC` it is 3.17 µM; for `Fc1ccc2[nH]c3c(NCc4ccccc4)ncnc3c2c1` it is 3.09 µM.
As to `Cc1cccc(/C=C(\c2nc3ccccc3[nH]2)S(=O)(=O)c2ccccc2)c1`, the AC50 is 4.5 µM.
Regarding `COc1ccc2c(c1)sc1nc(-c3ccccc3)cn12`, the AC50 is 7.37 µM.
The figure for `CC(=O)C1(C)CCC2C3C=C(C)C4=CC(=O)CCC4(C)C3CCC21C` (configuration not stated) is 9.83 µM; for `O=C(c1n[nH]c(=O)c2ccccc12)N1CCN(C2c3ccccc3-c3ccccc32)CC1` it is 7.69 µM; for `CC1=C(C#N)C(C(F)(F)F)(C(F)(F)F)N=C(c2ccco2)N1` it is 7.72 µM.
Take `COc1ccc(S(=O)(=O)N2CCN(c3cc(-c4ccccc4)nc4ncnn34)CC2)cc1`: the AC50 was 3.89 µM.
With `CN(c1ccccc1)S(=O)(=O)c1cccc(NC(=O)c2ccc3ncsc3c2)c1` the figure was 17.2 µM.
For `CS(=O)(=O)c1ccc(C(=O)OCC(=O)N2CCOCC2)cc1[N+](=O)[O-]`, the AC50 was 17.5 µM.
With `COc1ccccc1/C=C/CN1CCC(n2nccc2NC(=O)CCc2ccccc2)CC1` the figure was 1.91 µM; with `Cc1ccc(S(=O)(=O)N2CCN(C(=O)C3CCN(c4ncnc5sc(C)c(C)c45)CC3)CC2)c(C)c1`, 2.12 µM.
For the compound `COC(=O)C1=C(C(=O)OC)[C@@H]2N(Cc3ccccc3)c3ccccc3[C@@]23C[C@@H](C(=O)OC)N(C(=O)c2ccc(Br)cc2)C3=N1`, the AC50 was 8.52 µM.
The figure for `CCN(CC)CC(C)(C)C(=O)/C=C/c1ccc(/C=C/C(=O)C(C)(C)CN(CC)CC)cc1` is 0.468 µM.

Values taken from PubChem BioAssay AID743417 (Broad Institute, 2014).
